This is an account of results in ChEMBL document CHEMBL1139070, “Synthesis and characterization of poly (amino ester) for slow biodegradable gene delivery vector” (Bioorg Med Chem, 2007).

One data set deals with C2C12. Kind of data set: Cytotoxicity against C2C12 cells assessed as cell viability upto 30 ug/ml after 24 hrs by MTT method. Type of data set: cell-based. The conditions noted are these: c2c12, 24 h. Background: Tetrazolium dyes change colour on reduction, which living cells bring about.
Data set [1] in a line: Cytotoxicity against HEPG2 cells assessed as cell viability at 200 ug/ml by MTT method. Type of data set: cell-based. Particulars: human, read-out: Activity.
A short description of data set [2]: Cytotoxicity against C2C12 cells assessed as cell viability at 200 ug/ml after 24 hrs by MTT method. Type of data set: cell-based. Particulars: read-out: Activity.
Data set [3] in a line: Cytotoxicity against HEPG2 cells assessed as cell viability at 200 ug/ml after 24 hrs by MTT method. Type of data set: cell-based. The conditions noted are these: human, read-out: Activity.
Data set [4] is described as follows: Cytotoxicity against C2C12 cells assessed as cell viability at 200 ug/ml by MTT method. Type of data set: cell-based, Homo sapiens. Particulars: read-out: Activity.

`CCCCCC(=O)OCCN(CCOC(=O)CCN(CCC(=O)OC)CCN1CCC(=O)OCCCN2CCOC(=O)CCN(CCC(=O)OCCN(CCOC(=O)CCCCC)C(COC(=O)CCCCC)(COC(=O)CCCCC)COC(=O)CCN3CCC(=O)OCC2(CO)COC(=O)CCN(CCN(CCC(=O)OC)CCC(=O)OCC(COC(=O)CCCCC)(COC(=O)CCCCC)N(CCOC(=O)CCCCC)CCOC(=O)CCCCC)CCC(=O)OCCN(C(CO)(COC(=O)CCCCC)COC(=O)CCCCC)CCOC(=O)CCN(CCC(=O)OCC(COC(=O)CCCCC)(COC(=O)CCCCC)N(CCOC(=O)CCCCC)CCOC(=O)CCCCC)CC3)CCN(CCC(=O)OC)CC(=O)OCCN(CCOC(=O)CCCCC)C(CO)(COC(=O)CCCCC)COC(=O)CC1)C(CO)(COC(=O)CCCCC)COC(=O)CCCCC` (stereo not given): the Activity entry in the data set on C2C12 is recorded as “Non-toxic”. Besides, the values for the viability at 200 ug/ml in data set [1] and in data set [4] were 82% and 73%, respectively. In addition, the viability at 24 h, 200 ug/ml in data set [2] was 85%; in data set [3] it was 87%.
